Experimental data as given in patent US20240238258A1, “INHIBITORS OF PROTEIN TYROSINE PHOSPHATASE, COMPOSITIONS, AND METHODS OF USE” (BRISTOL-MYERS SQUIBB COMPANY, priority 2022, published 2024).

Assays:
B16-F10 cells = test: Cell proliferation assay in B16-F10 cells with IFN-gamma (CellTiter-Glo); assay type: cell-based; details: 120 h, mouse IFN-gamma 10 ng/mL, read-out: PTPN2 Prolif 5d B16F10 EC50
Protocol: B16-F10 cells (ATCC, Manassas, VA, #CRL-6475) were cultured in DMEM growth medium (ThermoFisher Scientific, Waltham, MA, #11995-040) supplemented with 10% heat inactivated FBS (ThermoFisher Scientific, #16140-071) and 1% pen/strep (ThermoFisher Scientific, #15140-122). The cells were seeded into two white opaque 384-well tissue culture treated microplates (PerkinElmer, Waltham, MA, #6007688) at a density of 100 cells/well in 20 uL total volume and incubated overnight at 37 C and 5% CO2. 30 nL of compounds dissolved in DMSO were then transferred from a source plate into target wells with the Echo650 acoustic liquid handler (Beckman Coulter, Indianapolis, IN). Negative control wells received 30 nL of DMSO only (0.15% final concentration). Plates were returned to the incubator for 1 hour and then cells treated with either 5 uL of growth medium or 5 uL of growth medium containing 50 ng/ml of recombinant mouse IFN-gamma protein (R&D Systems, Minneapolis, MN, #485-MI/CF, 10 ng/mL final concentration) using the Assist automated pipetting platform (INTEGRA Biosciences, Hudson, NH). Plates were incubated at 37C for 4 days and cell proliferation assayed with the CellTiter-Glo reagent (Promega, Madison, WI, #G7573, 25 uL per well). […] Off-target compound mediated cytotoxicity was identified by checking for growth inhibition in the absence of IFNg.

human PTPN2 [1] = molecular target: T1, human PTPN2 (Homo sapiens, UniProt P17706); test: Phosphatase activity assay using DiFMUP as substrate (PTPN2 BCHEM DIFMUP); assay type: biochemical; design: purchased MilliporeSigma SRP5075; details: human PTPN2 0.15 nM, 10 mM DTT, room temperature
T1 sequence (P17706 1-415): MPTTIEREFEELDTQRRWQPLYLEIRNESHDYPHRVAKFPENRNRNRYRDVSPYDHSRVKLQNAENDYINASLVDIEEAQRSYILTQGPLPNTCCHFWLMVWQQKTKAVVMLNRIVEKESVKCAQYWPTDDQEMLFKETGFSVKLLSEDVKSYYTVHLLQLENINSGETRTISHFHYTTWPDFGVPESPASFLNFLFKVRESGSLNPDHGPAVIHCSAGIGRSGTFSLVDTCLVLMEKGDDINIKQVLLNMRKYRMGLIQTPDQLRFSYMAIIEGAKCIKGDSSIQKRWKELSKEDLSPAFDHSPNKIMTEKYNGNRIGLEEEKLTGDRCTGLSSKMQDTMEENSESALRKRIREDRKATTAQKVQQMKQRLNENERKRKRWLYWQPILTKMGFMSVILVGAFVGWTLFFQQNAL
Protocol: The PTPN2 biochemical assay was performed as follows, a 5× stock solution of human PTPN2 (SRP5075, MilliporeSigma, Burlington, MA) and a 1.25× stock solution of DiFMUP (D6567, ThermoFisher Scientific, Waltham, MA), were prepared in 1× reaction buffer consisting of 50 mM HEPES, pH 7.4, 1 mM EDTA, 150 mM NaCl, 0.2 mg/mL BSA, 100 U/mL catalase and 10 mM DTT. […] of the DiFMUP substrate solution, for a final concentration of […] DiFMUP substrate, was added to a Corning 3574 384-well, white, non-binding surface microtiter plate containing […] of serially diluted test compounds prepared in DMSO. The reactions were started with the addition of […] of the enzyme solution, for a final PTPN2 concentration of 0.15 nM, and monitored every 105 seconds for 60 minutes at λEX 360/λEM 460 in a BioTek Synergy HTX plate reader (Agilent Technologies, Santa Clara, CA) at room temperature. The initial linear portions of the progress curves were fit according to a linear equation to yield the slopes and converted to % inhibition based on a value of 100% activity for the no inhibitor treated control. IC50 values of each compound were obtained by fitting the % inhibition-compound concentration curves using Dotmatics software (Dotmatics, Bishops Stortford, Hertfordshire, England).
(§1) For IC50 data, High DDT concentration and/or DiFMUP substrate assays were used; a skilled artisan may use either assay.

human PTPN2 [2] = molecular target: T1, human PTPN2; test: PTPN2 BCHEM (PhosphoSens assay, substrate AQT0264); assay type: biochemical; details: PhosphoSens substrate AQT0264 20 μM, PTPN2 150 pM, room temperature
Protocol: A PhosphoSens® kinase assay was performed as described by the vendor (AssayQuant Technologies, Marlborough, MA). Briefly, 1000× solutions of compounds were prepared in DMSO via serial dilution of the 10 mM DMSO stocks using 3-fold intervals in a 384-well reagent plate. 50 nL of the compound dilution series was then added to the corresponding wells of a 384-well assay plate. 40 mL of 1.25× substrate (AQT0264) in 1× assay buffer (50 mM HEPES pH 7.5, 500 μM EGTA, […] MgCl2, 0.01% Brij-35, 1% Glycerol, 1 mM DTT, and 0.2 mg/mL BSA) was transferred to each well of the assay plate to achieve a final substrate concentration of 20 μM. Finally, […] of 5× PTPN2 enzyme stock was added to each well of the assay plate for a final enzyme concentration of 150 pM. Reaction progress curves were collected by sampling fluorescence intensity at the excitation wavelength 360 nm (λex360) and emission wavelength 480 nm (λem480) every 71 seconds for one hour using a Synergy H4 plate reader (BioTek Instruments/Agilent Technologies, Winooski, VT) at room temperature.
as §1

[3] = system: phosphorylated STAT1 in B16-F10 cells; test: Phospho-STAT1 (Tyr701) HTRF assay in B16-F10 cells with IFN-gamma; assay type: cell-based; details: mouse IFN-gamma 100 ng/mL, 1 hour, read-out: pSTAT1 HTRF B16 EC50
Protocol: B16-F10 cells (ATCC, Manassas, VA, #CRL-6475) were cultured in DMEM growth medium (ThermoFisher Scientific, Waltham, MA, #11995-040) supplemented with 10% heat inactivated FBS (ThermoFisher Scientific, #16140-071) and 1% pen/strep (ThermoFisher Scientific, #15140-122). The cells were seeded into a white opaque 384-well tissue culture treated microplate (PerkinElmer, Waltham, MA, #6007688) at a density of 10,000 cells/well in 20 uL total volume and incubated overnight at 37 C and 5% CO2. 30 nL of compounds dissolved in DMSO were then transferred from a source plate into target wells with the Echo650 acoustic liquid handler (Beckman Coulter, Indianapolis, IN). Negative control wells received 30 nL of DMSO only (0.15% final concentration). Plates were returned to the incubator for 1 hour and then cells treated with either 5 uL of growth medium or 5 uL of growth medium containing 500 ng/ml of recombinant mouse IFN-gamma protein (R&D Systems, Minneapolis, MN, #485-MI/CF, 100 ng/mL final concentration) using the Assist automated pipetting platform (INTEGRA Biosciences, Hudson, NH). Plates were incubated at 37 C for 1 hour and assayed for phosphorylated STAT1 protein levels with the phospho-STAT1 (Tyr701) HTRF kit (Cisbio, Bedford, MA, #63ADK026PEH) according to manufacturer's instructions. HTRF signal intensity was collected with the EnVision 2105 plate reader (PerkinElmer) 24 hours later and analyzed with the Dotmatics software platform to calculate compound IC50 values.

Compound	EC50 (B16-F10 cells) [µM]	IC50 (human PTPN2 [1]) [µM]	IC50 (human PTPN2 [2]) [µM]	EC50 [3] [µM]
Cc1ccc(-c2csc(N(C)Cc3cc(O)c(N4CC(=O)NS4(=O)=O)c(F)c3)n2)c(C)c1 [EXAMPLE 1, 5-(4-(((4-(2,4-dimethylphenyl)thiazol-2-yl)(methyl)amino)methyl)-2-fluoro-6-hydroxyphenyl)-1,2,5-thiadiazolidin-3-one 1,1-dioxide]	> 15	0.72	0.94	> 15
O=C1CN(c2c(O)cc(CNc3cc[nH]n3)cc2F)S(=O)(=O)N1 [EXAMPLE 2, 5-(4-(((1H-pyrazol-3-yl)amino)methyl)-2-fluoro-6-hydroxyphenyl)-1,2,5-thiadiazolidin-3-one 1,1-dioxide]	> 15	0.02	–	> 15
O=C1CN(c2c(O)cc(CNc3ccon3)cc2F)S(=O)(=O)N1 [EXAMPLE 3, 5-(2-fluoro-6-hydroxy-4-((isoxazol-3-ylamino)methyl)phenyl)-1,2,5-thiadiazolidin-3-one 1,1-dioxide]	1.12	0.02	–	0.03
Cc1cc(NCc2cc(O)c(N3CC(=O)NS3(=O)=O)c(F)c2)no1 [EXAMPLE 4, 5-(2-fluoro-6-hydroxy-4-(((5-methylisoxazol-3-yl)amino)methyl)phenyl)-1,2,5-thiadiazolidin-3-one 1,1-dioxide]	1.03	0.03	0.02	0.35
O=C1CN(c2c(O)cc(CNc3nc[nH]n3)cc2F)S(=O)(=O)N1 [EXAMPLE 5, 5-(4-(((1H-1,2,4-triazol-3-yl)amino)methyl)-2-fluoro-6-hydroxyphenyl)-1,2,5-thiadiazolidin-3-one 1,1-dioxide]	1.69	0.04	–	0.93
Cn1ccc(NCc2cc(O)c(N3CC(=O)NS3(=O)=O)c(F)c2)n1 [EXAMPLE 6, 5-(2-fluoro-6-hydroxy-4-(((1-methyl-1H-pyrazol-3-yl)amino)methyl)phenyl)-1,2,5-thiadiazolidin-3-one 1,1-dioxide]	0.82	0.01	–	6.85
O=C1CN(c2c(O)cc(CNc3nncs3)cc2F)S(=O)(=O)N1 [EXAMPLE 7, 5-(4-(((1,3,4-thiadiazol-2-yl)amino)methyl)-2-fluoro-6-hydroxyphenyl)-1,2,5-thiadiazolidin-3-one 1,1-dioxide]	0.46	0.01	–	0.15
Cc1cnc(NCc2cc(O)c(N3CC(=O)NS3(=O)=O)c(F)c2)[nH]1 [EXAMPLE 8, 5-(2-fluoro-6-hydroxy-4-(((5-methyl-1H-imidazol-2-yl)amino)methyl)phenyl)-1,2,5-thiadiazolidin-3-one 1,1-dioxide]	5.9	0.16	–	4.65
O=C1CN(c2c(O)cc(CNc3nccs3)cc2F)S(=O)(=O)N1 [EXAMPLE 9, 5-(2-fluoro-6-hydroxy-4-((thiazol-2-ylamino)methyl)phenyl)-1,2,5-thiadiazolidin-3-one 1,1-dioxide]	2.3	0.003	–	1.43

The next lines start with the values.

EC50 (B16-F10 cells) [µM]	IC50 (human PTPN2 [1]) [µM]	IC50 (human PTPN2 [2]) [µM]	EC50 [3] [µM]	Compound
0.18	0.006	–	0.09	O=C1CN(c2c(O)cc(CNc3ncc[nH]3)cc2F)S(=O)(=O)N1 [EXAMPLE 10, 5-(4-(((1H-imidazol-2-yl)amino)methyl)-2-fluoro-6-hydroxyphenyl)-1,2,5-thiadiazolidin-3-one 1,1-dioxide]
0.16	0.01	–	0.21	Cn1ccnc1NCc1cc(O)c(N2CC(=O)NS2(=O)=O)c(F)c1 [EXAMPLE 11, 5-(2-fluoro-6-hydroxy-4-(((1-methyl-1H-imidazol-2-yl)amino)methyl)phenyl)-1,2,5-thiadiazolidin-3-one 1,1-dioxide]
0.56	0.01	–	0.23	Cc1nnc(NCc2cc(O)c(N3CC(=O)NS3(=O)=O)c(F)c2)s1 [EXAMPLE 12, 5-(2-fluoro-6-hydroxy-4-(((5-methyl-1,3,4-thiadiazol-2-yl)amino)methyl)phenyl)-1,2,5-thiadiazolidin-3-one 1,1-dioxide]
1.87	0.01	–	0.23	Cc1csc(NCc2cc(O)c(N3CC(=O)NS3(=O)=O)c(F)c2)n1 [EXAMPLE 13, 5-(2-fluoro-6-hydroxy-4-(((4-methylthiazol-2-yl)amino)methyl)phenyl)-1,2,5-thiadiazolidin-3-one 1,1-dioxide]
2.57	0.02	–	0.69	Cc1cc(NCc2cc(O)c(N3CC(=O)NS3(=O)=O)c(F)c2)sn1 [EXAMPLE 14, 5-(2-fluoro-6-hydroxy-4-(((3-methylisothiazol-5-yl)amino)methyl)phenyl)-1,2,5-thiadiazolidin-3-one 1,1-dioxide]
0.38	0.004	–	0.63	Cc1cc(NCc2cc(O)c(N3CC(=O)NS3(=O)=O)c(F)c2)[nH]n1 [EXAMPLE 15, 5-(2-fluoro-6-hydroxy-4-(((3-methyl-1H-pyrazol-5-yl)amino)methyl)phenyl)-1,2,5-thiadiazolidin-3-one 1,1-dioxide]
